{"source": "patent US9234018B2", "about": "“Compositions and methods for the treatment of VprBP-related cancers” (University of Southern California, priority 2013, dated 2016)", "key": {"H2AT120p in DU145 cells": {"test_system": "H2AT120p in DU145 cells", "experiment": "Cellular H2AT120p by western blotting and immunostaining", "assay_type": "cell-based, human", "method": "To this end, Applicants' inhouse small-molecule library of 5,000 compounds was screened. […] To evaluate their cellular effects, DU145 cells were treated with the compounds in the concentration range of […] for 24 hr. […] Thus, although Applicants cannot exclude the possibility that other kinases that were not included in the selectivity screen might be affected, B32B3 can be defined as a highly specific VprBP inhibitor at present.\nThe levels of VprBP and H2AT120p in tumors tissues were determined in FDA human tumor organ tissue microarray, which includes 16 types of organ cancer with matched or unmatched adjacent normal tissue (US Biomax, Inc). The formalin-fixed, paraffin-embedded sections were blocked by treating with blocking reagent (50 mM Tris-HCl, pH 7.5, 150 mM NaCl, 0.3% Triton X-100, and 5% normal goat serum) for 30 min at room temperature and incubated with VprBP and H2AT120p antibodies at 4° C. overnight. Immunodetection was performed using ABC reagent (Vectorstain). DAB (Vector Lab) was used for color development and hematoxylin (Sigma) was used for counterstaining. The intensity and distribution patterns of staining were evaluated by semiquantitative immunohistochemical assessment. The intensity of staining was graded from − to +++ (−, no staining; +, weak staining; ++, moderate staining; and +++, strong staining) The distribution of staining was classified from 0 to 3 (0, 0-20%; 1, 21-50%; 2, 51-80%; 3, 81-100%). For immunofluorescence of DU145 cells, cells were treated with DMSO or B32B3 (0.5 μM) for 24 h and fixed with 4% paraformaldehyde for 15 min. The corresponding samples were permeabilized with 0.3% Triton X-100 for 15 min and immunostained with H2AT120p antibody."}, "LCK": {"target": "LCK (Homo sapiens, UniProt P06239)", "sequence (P06239 whole entry)": "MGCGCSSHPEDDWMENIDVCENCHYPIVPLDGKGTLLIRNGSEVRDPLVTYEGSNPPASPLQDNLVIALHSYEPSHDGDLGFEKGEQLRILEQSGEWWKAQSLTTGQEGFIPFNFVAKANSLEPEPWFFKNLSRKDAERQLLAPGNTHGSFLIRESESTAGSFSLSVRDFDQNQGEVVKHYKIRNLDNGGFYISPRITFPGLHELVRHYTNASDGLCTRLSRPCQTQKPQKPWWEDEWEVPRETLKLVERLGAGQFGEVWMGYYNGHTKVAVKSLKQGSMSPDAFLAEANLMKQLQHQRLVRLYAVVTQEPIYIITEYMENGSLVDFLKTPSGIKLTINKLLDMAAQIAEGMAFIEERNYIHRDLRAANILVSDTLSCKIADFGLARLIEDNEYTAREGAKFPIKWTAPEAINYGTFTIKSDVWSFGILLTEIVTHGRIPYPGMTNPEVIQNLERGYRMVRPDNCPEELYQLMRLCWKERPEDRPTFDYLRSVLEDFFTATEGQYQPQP", "experiment": "Kinase selectivity panel", "assay_type": "biochemical"}, "PRKCD": {"target": "PRKCD (Homo sapiens, UniProt Q05655)", "sequence (Q05655 whole entry)": "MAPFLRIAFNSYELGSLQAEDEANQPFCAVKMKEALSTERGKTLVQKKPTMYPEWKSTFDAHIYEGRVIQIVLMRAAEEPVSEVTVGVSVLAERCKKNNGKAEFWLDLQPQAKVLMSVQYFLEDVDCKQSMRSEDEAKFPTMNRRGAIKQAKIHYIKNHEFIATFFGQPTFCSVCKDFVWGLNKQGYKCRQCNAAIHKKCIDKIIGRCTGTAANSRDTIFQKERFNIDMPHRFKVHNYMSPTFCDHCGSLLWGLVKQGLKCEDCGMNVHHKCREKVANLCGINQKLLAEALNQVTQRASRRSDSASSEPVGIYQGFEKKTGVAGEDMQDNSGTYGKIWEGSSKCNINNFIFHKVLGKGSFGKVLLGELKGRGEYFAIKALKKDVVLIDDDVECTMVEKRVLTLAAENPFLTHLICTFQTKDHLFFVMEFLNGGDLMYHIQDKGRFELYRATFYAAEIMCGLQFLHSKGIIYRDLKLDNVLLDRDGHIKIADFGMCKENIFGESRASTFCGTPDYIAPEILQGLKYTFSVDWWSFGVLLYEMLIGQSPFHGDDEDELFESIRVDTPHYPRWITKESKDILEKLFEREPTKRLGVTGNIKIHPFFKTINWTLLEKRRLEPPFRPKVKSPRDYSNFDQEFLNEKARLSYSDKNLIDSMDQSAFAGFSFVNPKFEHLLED", "experiment": "Kinase selectivity panel", "assay_type": "biochemical"}, "EEF2K": {"target": "EEF2K (Homo sapiens, UniProt O00418)", "sequence (O00418 whole entry)": "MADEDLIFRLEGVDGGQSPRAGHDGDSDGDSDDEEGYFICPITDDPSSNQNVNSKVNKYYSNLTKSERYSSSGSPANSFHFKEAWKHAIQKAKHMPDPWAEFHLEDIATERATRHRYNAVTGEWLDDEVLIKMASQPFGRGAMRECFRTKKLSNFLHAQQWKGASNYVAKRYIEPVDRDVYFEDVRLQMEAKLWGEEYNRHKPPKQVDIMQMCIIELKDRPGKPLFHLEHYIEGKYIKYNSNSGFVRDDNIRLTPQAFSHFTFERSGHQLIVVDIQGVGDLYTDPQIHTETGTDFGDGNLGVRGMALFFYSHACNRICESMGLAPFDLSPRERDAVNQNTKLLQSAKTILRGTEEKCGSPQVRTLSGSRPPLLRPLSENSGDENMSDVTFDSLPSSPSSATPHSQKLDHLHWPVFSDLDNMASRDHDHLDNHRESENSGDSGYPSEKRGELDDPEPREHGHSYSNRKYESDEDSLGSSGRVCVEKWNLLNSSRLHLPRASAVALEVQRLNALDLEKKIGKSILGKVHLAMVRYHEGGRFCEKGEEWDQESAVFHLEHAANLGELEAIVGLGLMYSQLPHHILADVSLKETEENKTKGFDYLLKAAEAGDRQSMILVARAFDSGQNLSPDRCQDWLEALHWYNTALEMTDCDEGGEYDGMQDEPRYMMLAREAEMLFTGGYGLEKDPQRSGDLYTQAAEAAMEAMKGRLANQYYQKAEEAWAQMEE", "experiment": "Kinase selectivity panel", "assay_type": "biochemical"}, "PLK2": {"target": "PLK2 (Homo sapiens, UniProt Q9NYY3)", "experiment": "Kinase selectivity panel", "assay_type": "biochemical"}, "PLK1": {"target": "PLK1 (Homo sapiens, UniProt P53350)", "sequence (P53350 whole entry)": "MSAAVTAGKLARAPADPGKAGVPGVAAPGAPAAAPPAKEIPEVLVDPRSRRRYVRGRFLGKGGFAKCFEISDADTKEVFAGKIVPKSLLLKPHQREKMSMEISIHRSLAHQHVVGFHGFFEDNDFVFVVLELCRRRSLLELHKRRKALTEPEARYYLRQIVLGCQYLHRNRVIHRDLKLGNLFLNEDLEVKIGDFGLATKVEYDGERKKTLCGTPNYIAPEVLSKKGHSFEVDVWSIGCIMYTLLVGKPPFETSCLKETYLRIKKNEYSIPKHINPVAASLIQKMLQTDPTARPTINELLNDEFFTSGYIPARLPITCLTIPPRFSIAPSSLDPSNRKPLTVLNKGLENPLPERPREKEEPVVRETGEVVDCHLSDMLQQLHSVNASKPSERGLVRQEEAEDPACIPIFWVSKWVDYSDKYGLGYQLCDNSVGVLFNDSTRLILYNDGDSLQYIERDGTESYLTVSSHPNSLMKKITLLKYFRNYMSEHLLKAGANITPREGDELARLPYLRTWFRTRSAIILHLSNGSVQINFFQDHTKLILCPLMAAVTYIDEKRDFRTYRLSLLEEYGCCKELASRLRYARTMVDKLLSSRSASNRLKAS", "experiment": "Kinase selectivity panel", "assay_type": "biochemical"}, "[1]": {"test_system": "H2AT120p and VprBP at target genes in DU145 cells", "experiment": "Chromatin immunoprecipitation (ChIP) at VprBP target genes", "assay_type": "cell-based, human", "settings": "B32B3 1 mM", "method": "Mock-depleted or VprBP-depleted DU145 cells were grown to 70-80% confluence, cross-linked with 1% formaldehyde for 10 min, and processed for ChIP as recently described (Kim, K. et al. (2012) Mol. Cell Biol. 32:783-796). […] All samples were run in triplicate and results were averaged. Sequences of the primers used for quantitative real time PCR (qPCR) are as follows: […]"}, "PKM2": {"target": "PKM2 (Homo sapiens, UniProt P14618)", "sequence (P14618 whole entry)": "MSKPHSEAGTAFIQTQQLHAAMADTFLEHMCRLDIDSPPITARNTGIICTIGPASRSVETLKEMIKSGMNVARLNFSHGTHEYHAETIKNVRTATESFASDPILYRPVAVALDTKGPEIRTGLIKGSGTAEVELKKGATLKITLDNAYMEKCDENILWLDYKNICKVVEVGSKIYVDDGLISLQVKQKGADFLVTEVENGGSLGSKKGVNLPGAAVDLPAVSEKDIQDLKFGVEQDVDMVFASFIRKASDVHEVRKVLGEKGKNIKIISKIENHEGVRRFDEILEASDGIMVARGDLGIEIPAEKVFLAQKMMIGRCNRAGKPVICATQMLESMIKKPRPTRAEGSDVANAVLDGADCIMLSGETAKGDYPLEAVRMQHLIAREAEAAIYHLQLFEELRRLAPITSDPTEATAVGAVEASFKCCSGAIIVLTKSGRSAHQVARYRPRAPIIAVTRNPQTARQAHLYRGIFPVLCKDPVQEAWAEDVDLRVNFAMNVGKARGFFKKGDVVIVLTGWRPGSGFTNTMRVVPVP", "experiment": "Kinase selectivity panel", "assay_type": "biochemical"}, "AURKB": {"target": "AURKB (Homo sapiens, UniProt Q96GD4)", "sequence (Q96GD4 whole entry)": "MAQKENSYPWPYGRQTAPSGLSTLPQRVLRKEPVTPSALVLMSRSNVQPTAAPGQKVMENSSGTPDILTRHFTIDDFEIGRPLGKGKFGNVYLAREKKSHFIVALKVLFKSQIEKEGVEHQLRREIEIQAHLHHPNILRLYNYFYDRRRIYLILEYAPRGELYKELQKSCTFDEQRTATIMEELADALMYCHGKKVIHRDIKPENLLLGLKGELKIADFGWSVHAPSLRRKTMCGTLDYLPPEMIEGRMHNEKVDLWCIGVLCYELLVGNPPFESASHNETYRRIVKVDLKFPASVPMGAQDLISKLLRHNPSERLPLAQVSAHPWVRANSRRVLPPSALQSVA", "experiment": "Kinase selectivity panel", "assay_type": "biochemical"}, "STK25": {"target": "STK25 (Homo sapiens, UniProt O00506)", "sequence (O00506 whole entry)": "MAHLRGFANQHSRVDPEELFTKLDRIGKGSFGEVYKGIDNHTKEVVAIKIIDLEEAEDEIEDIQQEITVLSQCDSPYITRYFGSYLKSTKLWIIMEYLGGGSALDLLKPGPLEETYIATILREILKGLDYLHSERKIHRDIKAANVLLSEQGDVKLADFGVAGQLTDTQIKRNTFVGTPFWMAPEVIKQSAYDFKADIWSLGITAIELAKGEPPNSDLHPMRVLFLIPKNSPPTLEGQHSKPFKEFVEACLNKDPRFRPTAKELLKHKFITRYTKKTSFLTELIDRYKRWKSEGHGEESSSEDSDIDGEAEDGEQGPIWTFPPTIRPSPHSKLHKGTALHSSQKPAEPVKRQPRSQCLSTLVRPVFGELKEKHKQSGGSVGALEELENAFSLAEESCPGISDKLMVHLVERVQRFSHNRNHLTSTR", "experiment": "Kinase selectivity panel", "assay_type": "biochemical"}, "BCK": {"target": "BCK", "experiment": "Kinase selectivity panel", "assay_type": "biochemical, human"}, "DNAPK": {"target": "DNAPK (Homo sapiens, UniProt P78527)", "experiment": "Kinase selectivity panel", "assay_type": "biochemical"}, "[2]": {"test_system": "VprBP target genes in DU145 cells", "experiment": "qRT-PCR of VprBP target genes", "assay_type": "cell-based, human", "settings": "B32B3 1 mM", "method": "Total RNA was isolated from mock- or VprBP-depleted cells using the TRIzol reagent according to the manufacturer's instructions (Invitrogen). Gene expression microarray experiments were conducted using a whole-genome expression array (Human HT-12 v4 Expression BeadChip, Illumina). This high density oligonucleotide array chip targets more than 47000 probe sequences derived from National Center for Biotechnology Information Reference Sequence (NCBI) RefSeq Release 38 (Nov. 7, 2009) and other sources. Data were processed and analyzed by the ArrayPipe software (www.pathogenomics.ca/arraypipe). For qRT-PCR, total RNA was extracted as described for microarray and subjected to RT reactions with the use of PerfeCta® SYBR Green FastMix (Quanta BIOSCIENCES) and an iCycler IQ5 real time cycler (Bio-Rad). The specificity of the amplification reactions were monitored by melting curve analysis. Assays were normalized to β-actin mRNA levels. The following primers were used for qRT-PCR: […]"}, "RSK3": {"target": "RSK3 (Homo sapiens, UniProt Q15349)", "sequence (Q15349 whole entry)": "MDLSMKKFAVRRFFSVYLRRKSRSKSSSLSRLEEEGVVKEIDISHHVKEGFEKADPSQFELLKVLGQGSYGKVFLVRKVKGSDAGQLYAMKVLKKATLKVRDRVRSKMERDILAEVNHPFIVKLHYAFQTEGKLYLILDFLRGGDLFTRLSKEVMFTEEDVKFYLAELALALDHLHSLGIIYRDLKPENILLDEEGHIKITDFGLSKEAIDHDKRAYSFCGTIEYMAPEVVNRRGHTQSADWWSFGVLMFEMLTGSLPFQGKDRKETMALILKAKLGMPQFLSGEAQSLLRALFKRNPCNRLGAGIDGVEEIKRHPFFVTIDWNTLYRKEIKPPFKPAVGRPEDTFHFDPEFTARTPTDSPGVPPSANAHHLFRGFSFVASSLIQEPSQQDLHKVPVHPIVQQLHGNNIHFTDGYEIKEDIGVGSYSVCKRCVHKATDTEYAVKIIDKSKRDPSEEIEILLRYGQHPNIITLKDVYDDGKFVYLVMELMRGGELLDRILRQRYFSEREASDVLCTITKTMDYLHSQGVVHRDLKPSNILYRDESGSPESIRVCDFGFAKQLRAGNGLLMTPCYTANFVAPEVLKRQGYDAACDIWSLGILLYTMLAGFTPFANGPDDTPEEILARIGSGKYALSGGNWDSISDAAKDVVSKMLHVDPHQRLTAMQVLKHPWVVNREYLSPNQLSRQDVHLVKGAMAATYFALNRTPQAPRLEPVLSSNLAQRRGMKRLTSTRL", "experiment": "Kinase selectivity panel", "assay_type": "biochemical"}, "CDK18": {"target": "CDK18 (Homo sapiens, UniProt Q07002)", "sequence (Q07002 whole entry)": "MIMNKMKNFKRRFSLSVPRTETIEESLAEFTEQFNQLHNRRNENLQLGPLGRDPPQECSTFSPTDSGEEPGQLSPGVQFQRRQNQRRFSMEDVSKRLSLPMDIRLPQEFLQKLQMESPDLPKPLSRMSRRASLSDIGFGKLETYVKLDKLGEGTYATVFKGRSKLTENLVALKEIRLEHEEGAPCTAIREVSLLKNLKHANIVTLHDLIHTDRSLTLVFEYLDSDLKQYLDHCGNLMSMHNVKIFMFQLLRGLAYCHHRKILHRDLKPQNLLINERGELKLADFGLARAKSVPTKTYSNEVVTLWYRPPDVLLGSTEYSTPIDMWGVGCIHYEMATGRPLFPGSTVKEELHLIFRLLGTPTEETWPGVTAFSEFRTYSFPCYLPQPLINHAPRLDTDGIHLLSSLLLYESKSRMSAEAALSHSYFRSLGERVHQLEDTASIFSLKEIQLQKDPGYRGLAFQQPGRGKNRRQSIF", "experiment": "Kinase selectivity panel", "assay_type": "biochemical"}}}
{"molecule": "c1ccc2c(CNNc3ncnc4sc5c(c34)CCCC5)c[nH]c2c1", "note": "[B32B3]", "values": [{"measurement": "Potency in cells overexpressing VprBP", "setting": "H2AT120p in DU145 cells; DU145 cells overexpressing VprBP, 24 h", "result": "considerably less potent"}, {"measurement": "IC50", "setting": "H2AT120p in DU145 cells; Homo sapiens, DU-145, DU145 cells, 24 hr, 0-5 mM, read-out: IC50 for inhibition of H2AT120p", "result": 0.5, "unit": "µM"}, {"measurement": "Decrease in IC50 (H2AT120p) upon knockdown of VprBP", "setting": "H2AT120p in DU145 cells; VprBP-knockdown DU145 cells, 24 h", "result": "circa 2 fold"}, {"measurement": "IC50", "setting": "LCK", "result": "> 10", "unit": "µM"}, {"measurement": "IC50", "setting": "PRKCD", "result": "> 10", "unit": "µM"}, {"measurement": "IC50", "setting": "EEF2K", "result": "> 10", "unit": "µM"}, {"measurement": "IC50", "setting": "PLK2", "result": "> 10", "unit": "µM"}, {"measurement": "IC50", "setting": "PLK1", "result": "> 10", "unit": "µM"}, {"measurement": "Reduction of H2AT120p at promoter and coding regions of target genes", "setting": "[1]", "result": 70, "unit": "%"}, {"measurement": "VprBP levels at promoter and coding regions of target genes", "setting": "[1]", "result": "did not alter"}, {"measurement": "IC50", "setting": "PKM2", "result": "> 10", "unit": "µM"}, {"measurement": "IC50", "setting": "AURKB", "result": "> 10", "unit": "µM"}, {"measurement": "IC50", "setting": "STK25", "result": "> 10", "unit": "µM"}, {"measurement": "IC50", "setting": "BCK", "result": "> 10", "unit": "µM"}, {"measurement": "IC50", "setting": "DNAPK", "result": "> 10", "unit": "µM"}, {"measurement": "Expression of VprBP target genes", "setting": "[2]", "result": "higher expression of VprBP target genes"}, {"measurement": "IC50", "setting": "RSK3", "result": "> 10", "unit": "µM"}, {"measurement": "IC50", "setting": "CDK18", "result": "> 10", "unit": "µM"}]}
